Earlier results in patent publication US20260096996A1, “PHARMACEUTICAL COMPOSITIONS OF TRETINOIN AND METHODS OF PRODUCING SUCH COMPOSITIONS” (Douglas Pharmaceuticals Limited, priority 2022, published 2026).

What was measured:
[1] = patients treated for APL

In the case of CC1=C(/C=C/C(C)=C/C=C/C(C)=C/C(=O)O)C(C)(C)CCC1 [tretinoin, all-trans retinoic acid], the absolute bioavailability (in vivo) is listed as “approximately 50%”, the “administered radiolabel recovered in the urine” value (orally administered, human) is listed as “approximately two-thirds” and the “radioactivity recovered in the urine” value (within 72 hours, radiolabeled tretinoin 2.75 mg and 50 mg) is listed as “approximately 63%”. For the same compound, the “radioactivity appeared in the feces” value (within 6 days, radiolabeled tretinoin 2.75 mg and 50 mg) was 31% and the “patients experiencing nausea and vomiting” value [1] was “More than half”.
